Experimental data reported in patent EP4574151A1, “INHIBITORS OF G12V-MUTATED RAS PROTEIN TO TREAT CANCER” (Personather Spolka Z Ograniczona Odpowiedzialnoscia, priority 2023, dated 2025).
“Also recorded” adds a separate entry of the source.

Experiments:
[1] = tested on: SW620 cells (with RASG12V mutation); test: Crystal violet cytotoxicity test (IC50) in KRASG12V positive cells; assay type: cell-based; settings: for toxicity towards KRASG12V positive cells (SW620) compared to normal cells (NIH/3T3): ratio from IC50 values, crystal violet test, 72 hours incubation; for toxicity against cancer cells expressing KRASG12V: summary statement
Excerpt: IC50 (half-maximal inhibitory concentration) is the concentration value of a tested compound which inhibits biochemical and biological functions of cells in half of the tested population. Determining this indicator is extremely important for assessing the cytotoxicity of molecules with therapeutic potential.
The first step in developing the methodology for determining IC50 was to conduct density tests to determine the appropriate number of cells to use in cytotoxicity tests. The different content of bovine fetal serum in the culture medium was also investigated to rule out any potential impact on the reduction in cell count, regardless of the analyzed molecules.
As a research model, colon cancer and lung cancer cell lines (sensitive lines) were used, including SW620, SW480, and COR-L23, respectively, which are characterized by the KRASG12V gene mutation and lack of other alterations in genes belonging to the RAS protein signaling pathway, as well as a stable line of normal cells (mouse fibroblasts), which serve as a platform for evaluating the impact of tested compounds on non-cancer cells. Below is the result for one of the analyzed cell lines with the mutation. Similar differences in IC50 values compared to normal cells were obtained for the other cell lines mentioned above with the RASG12V mutation.
The effect of molecules on the biology of selected cell lines to assess their cytotoxicity using the IC50 indicator was carried out according to the protocol below: • 1. The cells of the tested lines were seeded in wells of a 96-well plate at specified densities. • 2. After seeding, the cells were subjected to a 24-hour incubation in medium with a 1% and 2.5% addition of serum (sensitive lines) or in medium with a 0.5% addition of serum (normal line). • 3. The cells were exposed to selected molecules at selected concentrations. The control was provided by the culture medium without any added compounds. Concentrations of the tested molecules [uM]: • □ NIH3T3: 500; 250; 125; 62,5; 31,25 • □ SW620: 60; 30; 15; 7,5; 3,75 • 4. After 72 hours of incubation, the culture medium was removed and the cells were washed twice with buffer saline solution (PBS). Then, the cells were incubated for 10 minutes with a 0.1% solution of crystal violet at room temperature (Merck Millipore). • 5. After 10 minutes, the crystal violet solution was removed and the wells of the 96-well plate were washed twice with PBS solution. • 4. 50% ice-cold acetic acid solution was added to each well and incubated again for 10 minutes at room temperature on a shaker at 650 rpm. • 5. Absorbance measurement was performed using a plate reader, at a wavelength of λ = 540 nm

[2] = tested on: PER49 cell line; test: Western Blot analysis of the RAS-controlled signal transduction pathway in a normal cell line; assay type: cell-based; settings: normal PER49 cell line without KRASG12V; 10, 15 and 20 µM; 24 hours; serum-free; ERK, p-ERK, Akt, pAkt blots
Excerpt: Analysis of the impact of the studied compound on the signal transduction pathway controlled by RAS family proteins in normal cell lines based on Western Blot analysis.
The example illustrates the impact of the PER154A and PER160A molecules on the signal transduction pathway in the normal PER49 cell line.
• 1. PER49 cell line cells at 80-90% confluency were rinsed with phosphate-buffered saline without Mg2+ and Ca2+ ions. Remove PBS. • 2. Cells were detached from the vessel using Trypsin-EDTA (0.05%, 1x) for 1-3 minutes at 37°C. • 3. Cells were transferred to a 15 ml tube, centrifuged (200xg, 4 minutes) and suspended in RPMI1640 medium with 10% bovine serum and antibiotics. • 4. Cells were counted. • 5. 3x10^5cells were added to each well of a 6-well plate for adherent culture. • 6. The above medium was added and left for approximately 24 hours.
• 7. The cells were washed 2-3 times with buffered saline without Mg2+ and Ca2+ ions. Each time PBS was thoroughly removed. • 8.2 ml of RPMI1640 medium with antibiotics and without serum was added, and left for approximately 24 hours.
• 9. The cells were washed 2-3 times with a buffered saline solution without Mg2+ and Ca2+. PBS was thoroughly removed each time. • 10. […]

| SMILES | toxicity towards KRASG12V positive cells (SW620) compared to normal cells (NIH/3T3) [1] | toxicity against cancer cells expressing KRASG12V [1] | influence on the signal transduction pathway [2] |
| --- | --- | --- | --- |
| O=C(Nc1ccc2c(c1)OCCO2)c1ccc2c(c1)C1C3CCC(C3)C1C(c1ccccc1)N2 (stereo not drawn) [PER154A] | about 85 times | toxicity | No impact; also recorded: does not show any influence |
| O=C(Nc1ccc(F)cc1)c1ccc2c(c1)C1C3CCC(C3)C1C(c1ccccc1)N2 (stereo not drawn) [PER160A] | over 36 times | toxicity | No impact; also recorded: does not show any influence |
